Assay results: patent US20210338555A1, “COMPOSITION AND METHOD OF INHIBITING MINERALOCORTICOID RECEPTOR ACTIVITY BY APPLYING IT TO THE SKIN” (AMOREPACIFIC CORPORATION, priority 2018, published 2021)

Tested on: mineralocorticoid receptor
Assay: MMTV-luciferase reporter assay of mineralocorticoid receptor activity in CV-1 cells
Type: cell-based
Details: 10 μg/ml compound, after 2 hours dexamethasone (1 nM), cultivated 24 hours, FIG. 2
Experimental: RNA was separated from a CV-1 cell and PCR was performed using reverse transcriptase, so gene expressions of a glucocorticoid receptor (GR) and a mineralocorticoid receptor (MR) were confirmed, and the results are shown in FIG. 1.
The CV-1 cell was cultivated in a 24-well flat incubator. After 24 hours, the incubating medium was replaced with a 10% charcoal dextran-treated FBS-DMEM, and then after 4 hours, a mixing DNA of a MMTV-luciferase reporter plasmid and an internal Control Group of a pRL-SV-40 plasmid was transfected using TRANSFAST™ reagent (Promega). After 24 hours, it was treated with 10 μg/ml of the compound (INDOFINE Chemical Company, Inc.) represented by Chemical Formula 1-1, and after 2 hours, was treated with dexamethasone (1 nM), and then cultivated for 24 hours. The luciferase activity in the cell lysate was measured using a Dual-Luciferase Reporter Assay System (Promega), and the transfection efficiency was normalized by revising Renilla luciferase activity to measure a relative luciferase activity, and the results are shown in FIG. 2.

## O=c1c(-c2ccc(O)c(O)c2)coc2cc(O)ccc12 [Chemical Formula 1-1]
  relative luciferase activity (mineralocorticoid receptor activity induced by dexamethasone): deteriorated activity of the mineralocorticoid receptor
